Measurements published in ChEMBL document CHEMBL6120962, “New Mitochondria-Targeted Fisetin Derivative Compromises Mitophagy and Limits Survival of Drug-Induced Senescent Breast Cancer Cells” (J Med Chem, 2024).
Activity calls are given as the source filed them. The calls are words filed in the database; no cut-off is given here.

Key:
Mitochondrial membrane [1] = test: Induction of mitochondrial membrane potential depolarization in human HCC1428 cells at 1 to 5 uM incubated for 24 hrs by 7-AAD staining based flow cytometric analysis; type: cell membranes; conditions: dose 1-5 µM
HCC1428 [2] = test: Induction of apoptosis in human HCC1428 cells assessed as phosphatidylserine externalization at 1 to 5 uM incubated for 24 hrs by Annexin V-FITC staining based flow cytometric analysis; type: functional, cell-based; conditions: dose 1-5 µM
ZR-75-30 [3] = test: Induction of apoptosis in tamoxifen-induced senescent human ZR-75-30 cells assessed as phosphatidylserine externalization at 1 to 5 uM incubated for 24 hrs by Annexin V-FITC staining based flow cytometric analysis; type: functional, cell-based; conditions: dose 1-5 µM
MCF-10F [4] = test: Induction of mitochondrial dysfunction in tamoxifen-induced senescent human MCF-10F cells assessed as decrease in maximal respiration at 5 uM incubated for 6 hrs by real-time analysis; type: functional, cell-based
HCC1428 [5] = test: Induction of mitochondrial dysfunction in tamoxifen-induced senescent human HCC1428 cells assessed as decrease in coupling efficiency respiration at 5 uM incubated for 6 hrs by real-time analysis; type: functional, cell-based
CAMA-1 [6] = test: Induction of apoptosis in tamoxifen-induced senescent human CAMA-1 cells assessed as phosphatidylserine externalization at 1 to 5 uM incubated for 24 hrs by Annexin V-FITC staining based flow cytometric analysis; type: functional, cell-based; conditions: dose 1-5 µM
HCC1428 [7] = test: Induction of apoptosis in tamoxifen-induced senescent human HCC1428 cells assessed as phosphatidylserine externalization at 1 to 5 uM incubated for 24 hrs by Annexin V-FITC staining based flow cytometric analysis; type: functional, cell-based; conditions: dose 1-5 µM
MCF7 = test: Antitumor activity against ER-positive human MCF7 cells xenografted in Danio rerio embryo assessed as decrease in tumor size at 1 to 5 uM administered for 48 hrs by imaging analysis; type: functional, cell-based; conditions: dose 1-5 µM
ZR-75-30 [8] = test: Induction of apoptosis in human ZR-75-30 cells assessed as phosphatidylserine externalization at 1 to 5 uM incubated for 24 hrs by Annexin V-FITC staining based flow cytometric analysis; type: functional, cell-based; conditions: dose 1-5 µM
HCC1428 [9] = test: Induction of mitochondrial dysfunction in tamoxifen-induced senescent human HCC1428 cells assessed as decrease in spare respiratory capacity at 5 uM incubated for 6 hrs by real-time analysis; type: functional, cell-based
MCF-10F [10] = test: Induction of mitochondrial dysfunction in tamoxifen-induced senescent human MCF-10F cells assessed as decrease in spare respiratory capacity at 5 uM incubated for 6 hrs by real-time analysis; type: functional, cell-based
HCC1428 [11] = test: Induction of alternative mitophagy in tamoxifen-induced senescent human HCC1428 cells assessed as increase in Rab9 level at 1 to 5 uM by immunostaining based imaging cytometric analysis; type: functional, cell-based; conditions: dose 1-5 µM
MCF-10F [12] = test: Induction of mitochondrial dysfunction in tamoxifen-induced senescent human MCF-10F cells assessed as increase in proton leak at 5 uM incubated for 6 hrs by real-time analysis; type: functional, cell-based
T47D = test: Antitumor activity against ER-positive human T47D cells xenografted in Danio rerio embryo assessed as decrease in tumor size at 1 to 5 uM administered for 48 hrs by imaging analysis; type: functional, cell-based; conditions: dose 1-5 µM
MCF-10F [13] = test: Induction of mitochondrial dysfunction in tamoxifen-induced senescent human MCF-10F cells assessed as decrease in ATP production at 5 uM incubated for 6 hrs by real-time analysis; type: functional, cell-based
Mitochondrial membrane [14] = test: Induction of mitochondrial membrane potential depolarization in human CAMA-1 cells at 1 to 5 uM incubated for 24 hrs by 7-AAD staining based flow cytometric analysis; type: cell membranes; conditions: dose 1-5 µM
HCC1500 [15] = test: Induction of apoptosis in tamoxifen-induced senescent human HCC1500 cells assessed as phosphatidylserine externalization at 1 to 5 uM incubated for 24 hrs by Annexin V-FITC staining based flow cytometric analysis; type: functional, cell-based; conditions: dose 1-5 µM
[16] = target: Apoptosis regulator Bcl-2 (Homo sapiens) (UniProt P10415); test: Binding affinity to recombinant human Bcl-2 assessed as interaction by measuring decrease in chemiluminescence signal at 0.01 to 5 uM incubated overnight by dot-blot analysis; conditions: dose 0.01-5 µM
Sequence of Apoptosis regulator Bcl-2 (Homo sapiens) (P10415 whole entry): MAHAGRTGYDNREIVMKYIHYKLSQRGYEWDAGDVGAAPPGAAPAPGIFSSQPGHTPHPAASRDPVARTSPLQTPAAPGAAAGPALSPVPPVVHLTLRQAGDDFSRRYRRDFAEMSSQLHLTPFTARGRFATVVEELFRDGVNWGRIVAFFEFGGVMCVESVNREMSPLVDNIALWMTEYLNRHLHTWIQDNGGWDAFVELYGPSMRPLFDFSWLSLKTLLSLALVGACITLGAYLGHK

HCC1428 [17] = test: Induction of autophagy in tamoxifen-induced senescent human HCC1428 cells assessed as increase in VPS34 level at 1 to 5 uM by immunostaining based imaging cytometric analysis; type: functional, cell-based; conditions: dose 1-5 µM
HCC1428 [18] = test: Induction of mitochondrial dysfunction in tamoxifen-induced senescent human HCC1428 cells assessed as decrease in ATP production at 5 uM incubated for 6 hrs by real-time analysis; type: functional, cell-based
MCF-10F [19] = test: Induction of mitochondrial dysfunction in tamoxifen-induced senescent human MCF-10F cells assessed as decrease in coupling efficiency at 5 uM incubated for 6 hrs by real-time analysis; type: functional, cell-based
HCC1428 [20] = test: Induction of autophagosome formation in tamoxifen-induced senescent human HCC1428 cells assessed as increase in ubiquitin level at 1 to 5 uM by immunostaining based imaging cytometric analysis; type: functional, cell-based; conditions: dose 1-5 µM
HCC1428 [21] = test: Induction of ubiquitin-dependent mitophagy in tamoxifen-induced senescent human HCC1428 cells assessed as increase in PINK1 level at 1 to 5 uM by immunostaining based imaging cytometric analysis; type: functional, cell-based; conditions: dose 1-5 µM
HCC1428 [22] = test: Anticancer activity against ER-positive human HCC1428 cells assessed as effect on metabolic activity at 10 uM incubated for 24 hrs by MTT assay; type: functional, cell-based
HCC1428 [23] = test: Induction of ubiquitin-dependent mitophagy in tamoxifen-induced senescent human HCC1428 cells assessed as increase in parkin level at 1 to 5 uM by immunostaining based imaging cytometric analysis; type: functional, cell-based; conditions: dose 1-5 µM
HCC1428 [24] = test: Induction of apoptosis in tamoxifen-induced senescent human HCC1428 cells assessed as decrease in AKT level at 5 uM incubated for 24 hrs by Western blotting analysis; type: functional, cell-based
HCC1500 [25] = test: Induction of apoptosis in human HCC1500 cells assessed as phosphatidylserine externalization at 1 to 5 uM incubated for 24 hrs by Annexin V-FITC staining based flow cytometric analysis; type: functional, cell-based; conditions: dose 1-5 µM
HCC1428 [26] = test: Induction of autophagosome formation in tamoxifen-induced senescent human HCC1428 cells assessed as increase in LC3B level at 1 to 5 uM by immunostaining based imaging cytometric analysis; type: functional, cell-based; conditions: dose 1-5 µM
HCC1428 [27] = test: Induction of ubiquitin-independent mitophagy in tamoxifen-induced senescent human HCC1428 cells assessed as increase in BNIP3 level at 1 to 5 uM by immunostaining based imaging cytometric analysis; type: functional, cell-based; conditions: dose 1-5 µM
Mitochondrial membrane [28] = test: Induction of mitochondrial membrane potential depolarization in human HCC1500 cells at 1 to 5 uM incubated for 24 hrs by 7-AAD staining based flow cytometric analysis; type: cell membranes; conditions: dose 1-5 µM
BJ [29] = test: Cytotoxicity against human BJ cells assessed as effect on metabolic activity at 10 uM incubated for 24 hrs by MTT assay; type: toxicity, cell-based
CAMA-1 [30] = test: Induction of apoptosis in human CAMA-1 cells assessed as phosphatidylserine externalization at 1 to 5 uM incubated for 24 hrs by Annexin V-FITC staining based flow cytometric analysis; type: functional, cell-based; conditions: dose 1-5 µM
[31] = target: RAC-alpha serine/threonine-protein kinase (Homo sapiens) (UniProt P31749); test: Binding affinity to recombinant human AKT (14 to 276 residues) assessed as interaction by measuring decrease in chemiluminescence signal at 0.01 to 5 uM incubated overnight by dot-blot analysis; conditions: dose 0.01-5 µM
Sequence of RAC-alpha serine/threonine-protein kinase (Homo sapiens) (P31749 whole entry, the tested form may be a part): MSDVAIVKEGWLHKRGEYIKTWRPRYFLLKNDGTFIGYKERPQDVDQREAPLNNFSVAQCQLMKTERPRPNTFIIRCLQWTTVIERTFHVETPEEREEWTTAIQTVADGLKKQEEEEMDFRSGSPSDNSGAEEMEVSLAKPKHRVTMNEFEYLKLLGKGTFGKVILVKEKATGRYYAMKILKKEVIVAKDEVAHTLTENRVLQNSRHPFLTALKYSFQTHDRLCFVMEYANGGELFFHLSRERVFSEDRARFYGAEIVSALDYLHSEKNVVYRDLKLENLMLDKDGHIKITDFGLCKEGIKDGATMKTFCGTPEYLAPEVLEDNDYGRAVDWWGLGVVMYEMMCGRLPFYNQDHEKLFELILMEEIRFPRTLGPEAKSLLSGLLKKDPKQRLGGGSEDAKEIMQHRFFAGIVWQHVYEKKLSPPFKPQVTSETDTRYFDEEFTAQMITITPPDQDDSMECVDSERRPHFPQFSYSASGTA

HCC1428 [32] = test: Upregulation of BECN1 level in tamoxifen-induced senescent human HCC1428 cells at 1 to 5 uM by immunostaining based imaging cytometric analysis; type: functional, cell-based; conditions: dose 1-5 µM
HCC1428 [33] = test: Induction of autophagy in tamoxifen-induced senescent human HCC1428 cells assessed as increase in ULK1 level at 1 to 5 uM by immunostaining based imaging cytometric analysis; type: functional, cell-based; conditions: dose 1-5 µM
HCC1428 [34] = test: Induction of mitochondrial dysfunction in tamoxifen-induced senescent human HCC1428 cells assessed as increase in proton leak at 5 uM incubated for 6 hrs by real-time analysis; type: functional, cell-based
Mitochondrial membrane [35] = test: Induction of mitochondrial membrane potential depolarization in human ZR-75-30 cells at 1 to 5 uM incubated for 24 hrs by 7-AAD staining based flow cytometric analysis; type: cell membranes; conditions: dose 1-5 µM
HCC1428 [36] = test: Induction of mitochondrial dysfunction in tamoxifen-induced senescent human HCC1428 cells assessed as decrease in maximal respiration at 5 uM incubated for 6 hrs by real-time analysis; type: functional, cell-based
BJ [37] = test: Cytotoxicity against human BJ cells assessed as effect on metabolic activity at 1 to 10 uM incubated for 24 hrs by MTT assay; type: toxicity, cell-based; conditions: dose 1-10 µM
HCC1428 [38] = test: Induction of mitochondrial dysfunction in human HCC1428 cells assessed as decrease in spare respiratory capacity at 5 uM incubated for 6 hrs by real time analysis; type: functional, cell-based
HCC1428 [39] = test: Induction of mitochondrial dysfunction in human HCC1428 cells assessed as decrease in maximal respiration at 5 uM incubated for 6 hrs by real time analysis; type: functional, cell-based
HCC1428 [40] = test: Anticancer activity against ER-positive human HCC1428 cells assessed as effect on metabolic activity upto 10 uM incubated for 24 hrs by MTT assay; type: functional, cell-based
HCC1500 [41] = test: Anticancer activity against ER-positive human HCC1500 cells assessed as effect on metabolic activity upto 10 uM incubated for 24 hrs by MTT assay; type: functional, cell-based
HCC1428 [42] = test: Induction of mitochondrial dysfunction in human HCC1428 cells assessed as increase in proton leak at 5 uM incubated for 6 hrs by real time analysis; type: functional, cell-based
CAMA-1 [43] = test: Anticancer activity against ER-positive human CAMA-1 cells assessed as effect on metabolic activity upto 10 uM incubated for 24 hrs by MTT assay; type: functional, cell-based
HCC1428 [44] = test: Induction of mitochondrial dysfunction in human HCC1428 cells assessed as decrease in ATP production at 5 uM incubated for 6 hrs by real time analysis; type: functional, cell-based
HCC1428 [45] = test: Induction of mitochondrial dysfunction in human HCC1428 cells assessed as decrease in coupling efficiency at 5 uM incubated for 6 hrs by real time analysis; type: functional, cell-based
[46] = Cytotoxicity against human MCF-10F cells assessed as effect on metabolic activity at 1 to 10 uM incubated for 24 hrs by MTT assay; type: toxicity, cell-based; conditions: dose 1-10 µM
ZR-75-30 [47] = test: Anticancer activity against ER-positive human ZR-75-30 cells assessed as effect on metabolic activity upto 10 uM incubated for 24 hrs by MTT assay; type: functional, cell-based

SMILES: O=c1c(O)c(-c2ccc(O)c(O)c2)oc2cc(O)ccc12 [FISETIN]
- Activity (Mitochondrial membrane [1]): inactive
- Activity (HCC1428 [2]): inactive
- Activity (ZR-75-30 [3]): inactive
- Activity (MCF-10F [4]): inactive
- Activity (HCC1428 [5]): inactive
- Activity (CAMA-1 [6]): inactive
- Activity (HCC1428 [7]): inactive
- Activity (MCF7): inactive
- Activity (ZR-75-30 [8]): inactive
- Activity (HCC1428 [9]): inactive
- Activity (MCF-10F [10]): inactive
- Activity (HCC1428 [11]): inactive
- Activity (MCF-10F [12]): inactive
- Activity (T47D): inactive
- Activity (MCF-10F [13]): inactive
- Activity (Mitochondrial membrane [14]): inactive
- Activity (HCC1500 [15]): inactive
- Activity [16]: Active
- Activity (HCC1428 [17]): inactive
- Activity (HCC1428 [18]): inactive
- Activity (MCF-10F [19]): inactive
- Activity (HCC1428 [20]): inactive
- Activity (HCC1428 [21]): inactive
- Activity (HCC1428 [22]): Active
- Activity (HCC1428 [23]): inactive
- Activity (HCC1428 [24]): Active
- Activity (HCC1500 [25]): inactive
- Activity (HCC1428 [26]): inactive
- Activity (HCC1428 [27]): inactive
- Activity (Mitochondrial membrane [28]): inactive
- Activity (BJ [29]): Toxic
- Activity (CAMA-1 [30]): inactive
- Activity [31]: Active
- Activity (HCC1428 [32]): inactive
- Activity (HCC1428 [33]): inactive
- Activity (HCC1428 [34]): inactive
- Activity (Mitochondrial membrane [35]): inactive
- Activity (HCC1428 [36]): inactive

SMILES: CC(=O)Oc1c(-c2ccc3c(c2)OC(c2ccccc2)(c2ccccc2)O3)oc2cc(OCCCC[P+](c3ccccc3)(c3ccccc3)c3ccccc3)ccc2c1=O.[I-]
- Activity (BJ [37]): Non-toxic
- Activity (HCC1428 [38]): Active
- Activity (HCC1428 [39]): Active
- Activity (HCC1428 [40]): Active
- Activity (HCC1500 [41]): Active
- Activity (HCC1428 [42]): Active
- Activity (CAMA-1 [43]): Active
- Activity (HCC1428 [44]): Active
- Activity (HCC1428 [45]): Active
- Activity [46]: Non-toxic
- Activity [16]: Active
- Activity (ZR-75-30 [47]): Active
- Activity [31]: Active

SMILES: O=c1c(O)c(-c2ccc3c(c2)OC(c2ccccc2)(c2ccccc2)O3)oc2cc(O)ccc12
- Activity (HCC1428 [38]): Active; Slight Effect Observed
- Activity (HCC1428 [39]): Active; Slight Effect Observed
- Activity (MCF7): inactive
- Activity (HCC1428 [42]): Active; Slight Effect Observed
- Activity (T47D): inactive
- Activity (HCC1428 [44]): Active; Slight Effect Observed
- Activity (HCC1428 [45]): Active; Slight Effect Observed
- Activity [16]: Active
- Activity [31]: Active
